# Test results taken from patent US5594006A, “Carbostyril derivatives as matrix metalloproteinases inhibitors” (Otsuka Pharmaceutical Co., Ltd., priority 1993, dated 1997).
# Columns and labels:
# [1] = molecular target: Type IV collagenase; assay: Type IV collagenase inhibiting activity (fluorescence labeled gelatin); type: biochemical, human; settings: from HT-1080 cell; 6 hours at 37° C., pH 7.5
# Protocol: (3) Measuring Method of Type IV Collagenase Inhibiting Activity
# Inhibiting of type IV collagenase refined from the culture supernatant of human […] (HT-1080 cell) was measured by using fluorescence labeled gelatin, according to the method proposed by Haris et al. [Haris, E. D., and Krane, S. M., Biochim. Biophys. Acta., 258, 566-576 (1972)].
# The enzyme was activated by incubating for 22 hours at 37° C. in 1 mM mercury (II) p-aminophenylacetate. The test compound was used by dissolving in dimethyl sulfoxide. The enzyme reaction was started by adding the activated enzyme in 50 mM TRIS-hydrochloric acid (pH 7.5), 10 mM CaCl2, 0.01% (w/v) "Bridge 35" (tradename, available from Wako Pure Chemical Industries, Ltd.), 0.1% (v/v) dimethyl sulfoxide solution containing the test compound and 0.1% (w/v) of fluorescence labeled gelatin as substrate. The reaction was conducted for 6 hours at 37° C., and stopped by adding 30% (w/v) trichloroacetic acid solution by 1/2 amount. After letting stand at 4° C. for 30 minutes, by centrifugal separation for 10 minutes at 10000 rpm, 4° C., the undigested substrate was precipitated. To 1 part by volume of the obtained supernatant, 50 parts by volume of 0.3M phosphate buffer (pH 8.5) was added, and the fluorescence intensity was measured at 520 nm (Em)/495 nm (Ex), and the undigested amount was quantitatively determined.
# The enzyme inhibiting activity was expressed by the concentration (IC50) of the test compound wherein the enzyme activity of known amount was blocked till 50%.
# [2] = molecular target: T1, Interstitial collagenase (Homo sapiens, UniProt P03956); assay: Interstitial collagenase inhibiting activity (fluorescence labeled collagen); type: biochemical; settings: from human fibroblast cell (Detroit 551); 2 hours at 35° C., pH 7.5
# T1 construct: endogenous in cells; host or cells: Detroit 551 (human fibroblasts), culture supernatant, purified
# T1 sequence (P03956 100-469): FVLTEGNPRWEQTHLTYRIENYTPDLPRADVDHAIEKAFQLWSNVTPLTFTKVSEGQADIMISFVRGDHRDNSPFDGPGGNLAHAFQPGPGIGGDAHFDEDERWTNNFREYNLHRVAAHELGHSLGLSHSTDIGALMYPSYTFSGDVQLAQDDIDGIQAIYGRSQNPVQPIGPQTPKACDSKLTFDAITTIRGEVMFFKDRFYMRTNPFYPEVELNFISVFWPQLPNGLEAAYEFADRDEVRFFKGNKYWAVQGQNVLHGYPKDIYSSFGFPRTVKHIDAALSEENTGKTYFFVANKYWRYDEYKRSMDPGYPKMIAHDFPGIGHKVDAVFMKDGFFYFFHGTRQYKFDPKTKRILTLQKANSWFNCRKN
# Protocol: (2) Measuring Method of Interstitial Collagenase Inhibiting Activity
# Inhibiting of interstitial collagenase refined from the culture supernatant of human fibroblast cell (Detroit 551 cell) was measured by using fluorescence labeled collagen, according to the method proposed by Nagai et al. [Inflammation, 4 (2), 123 (1984)].
# The enzyme was activated by incubating for 3 hours at 37° C. in 1 mM mercury (II) p-aminophenylacetate. The test compound was used by dissolving in dimethyl sulfoxide. The enzyme reaction was started by adding the activated enzyme in 50 mM TRIS-hydrochloric acid (pH 7.5), 0.2M NaCl, 5 mM CaCl2, 0.02% (w/v) NaN3, 2.5 mM acetic acid, and 0.1% (v/v) dimethyl sulfoxide solution containing the test compound and 0.025% (w/v) of fluorescence labeled collagen as substrate. The reaction was conducted for 2 hours at 35° C., and stopped by adding ice-chilled 80 mM O-phenanthroline, 50% (v/v) ethanol solution by 1/20 amount. To this, moreover, an equivalent volume of 50 mM TRIS-hydrochloric acid (pH 7.5), 0.2M NaCl, 5 mM CaCl2, 0.02% (w/v) NaN3 solution was added to incubate further for 1 hour at 35° C. to degenerate specifically only the digestion product, and the digestion product was extracted by adding 0.17M TRIS-hydrochloric acid (pH 9.5), 0.67M NaCl solution including an equivalent amount of 70% (v/v) ethanol, and afterwards, by centrifugal separation for 15 minutes at 3000 rpm, 4° C., the undigested substrate was precipitated. The fluorescence intensity of the obtained supernatant was measured at 520 nm (Em)/495 nm (Ex), and the decomposition volume was quantitatively determined.
# (§1) The enzyme inhibiting activity was expressed by the concentration (IC50) of the test compound wherein the enzyme activity of known amount was inhibited till 50%.
# [3] = molecular target: T2, Stromelysin (Mus musculus, UniProt P28862); assay: Stromelysin inhibiting activity (fluorescence labeled casein); type: biochemical; settings: from mouse colon cancer cell (Colon 26); 3 hours at 37° C., pH 7.5
# T2 construct: endogenous in cells; host or cells: Colon 26 (mouse colon cancer cells), culture supernatant, purified
# T2 sequence (P28862 100-477): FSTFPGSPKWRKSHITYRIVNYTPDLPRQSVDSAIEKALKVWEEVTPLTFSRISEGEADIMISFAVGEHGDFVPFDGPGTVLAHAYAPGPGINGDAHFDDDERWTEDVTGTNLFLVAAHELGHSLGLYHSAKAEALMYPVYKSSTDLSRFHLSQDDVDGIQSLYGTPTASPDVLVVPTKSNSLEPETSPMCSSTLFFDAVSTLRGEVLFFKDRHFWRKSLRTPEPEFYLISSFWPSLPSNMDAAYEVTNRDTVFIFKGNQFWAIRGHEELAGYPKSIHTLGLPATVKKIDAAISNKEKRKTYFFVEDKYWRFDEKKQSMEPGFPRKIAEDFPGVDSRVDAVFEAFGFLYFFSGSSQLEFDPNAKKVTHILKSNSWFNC
# Protocol: (1) Measuring Method of Stromelysin Inhibiting Activity
# Inhibiting of Stromelysin refined from the culture supernatant of mouse colon cancer cell (Colon 26 cell) was measured by using fluorescence labeled casein, according to the method proposed by Miyazaki et al. (J. Biochem., 108, 537-543, 1990), and S. S. Twining [Fed. Proc., 42, 1951 (1984)].
# The enzyme was activated by incubating for 2 hours at 37° C. in 1 mM mercury (II) p-aminophenylacetate. The test compound was used by dissolving in dimethyl sulfoxide. The enzyme reaction was started by adding the activated enzyme in a solution of 50 mM TRIS-hydrochloric acid (pH 7.5), 10 mM CaCl2, and 0.1% (v/v) dimethyl sulfoxide containing the test compound and 0.25% (w/v) of fluorescence labeled casein as substrate. The reaction was conducted for 3 hours at 37° C., and stopped by adding an equivalent amount of 5% (w/v) trichloroacetic acid solution. Afterwards, by centrifugal separation for 15 minutes at 3000 rpm, 4° C., the undigested substrate was precipitated, and to 1 part by volume of the obtained supernatant, 4 parts by volume of 0.3M phosphate buffer (pH 8.5) was added, and the fluorescence intensity was measured at 520 nm (Em)/495 nm (Ex), and the decomposition volume was quantitatively determined.
# as §1
# [4] = tested on: Colon 26 PMF15 tumor cells; assay: Lung metastasis of Colon 26 PMF15 tumor in mice after oral administration; type: in vivo, male CDF1 mice; settings: Test I; for Number of lung metastastic nodules mean ± S.E.: day 28; for Ratio to control group: lung nodules
# Protocol: Experiment was carried out according to a method of Motoyama et al. [Gan To Kagaku Ryoho (JAPAN), 21(8): pages 1209-1214, 1994]. That is, Colon 26 PMF15 tumor cells (5×10^5 /mouse) were inoculated into the left hind footpad of male CDF1 mice (one group comprising 7 mice). After 14 days from inoculation, the left hind-limb was cut from the upper part of the articulatio geniculum under pentobarbital anesthetization using a cautery knife to remove the primary tumor. After 28 days from inoculation,the lung was removed and the number of metastastic nodules on the surface thereof were measured, thereby taking it as an index of the effect. The test compound was orally administered one time a day until 27 days have passed since the day following the day when tumor cells were inoculated, excluding the day when the primary tumor was removed.
Compound,IC50 [1] [nM],IC50 [2] [nM],IC50 [3] [nM],further results
"3S- [4-(N-hydroxyamino)-2R-isobutyl-succinyl ]amino-1-isobutoxy-3,4-dihydrocarbostyril [Example 21]",340,–,–,–
"1-(4-carboxybenzyl)-3(R or S)-[4-(N-hydroxyamino)-2R-isobutylsuccinyl]amino-3,4-dihydrocarbostyril [Example 30]",240,–,–,–
"CC(C)C[C@@H](C(=O)N[C@H]1Cc2ccccc2NC1=O)C(CN1C(=O)c2ccccc2C1=O)C(=O)NO (single isomer, unassigned) [Test compound 7, 3S-[4-(N-hydroxyamino)-2R-isobutyl-3(R or S)-phthalimidomethylsuccinyl]amino-3,4-dihydrocarbostyril]",18,–,23,–
"3S-[4-(N-hydroxyamino)-2R-isobutyl-3S-methylsuccinyl]amino-1-(4-methoxybenzyl)-3,4dihydrocarbostyril [Example 31]",1400,–,–,–
"CC(C)C[C@@H](C(=O)N[C@H]1Cc2ccccc2NC1=O)[C@H](CSc1cccs1)C(=O)NO [Test compound 6, 3S-[4-(N-hydroxyamino)-2R-isobutyl-3S-(2-thienylthiomethyl)succinyl]amino-3,4-dihydrocarbostyril]",58,2.4,27,–
"CCCCC[C@H](CC(=O)NO)C(=O)N[C@H]1Cc2cc3c(cc2N(CC)C1=O)OCO3 [Test compound 29, 1-ethyl-3S-[4-(N-hydroxyamino)-2R-pentylsuccinyl]amino-6,7-methylenedioxy-3,4-dihydrocarbostyril]",200,14,–,–

# The next lines start with results.
IC50 [1] [nM],IC50 [2] [nM],IC50 [3] [nM],Compound,further results
510,450,490,"COc1ccc2c(c1)NC(=O)[C@@H](NC(=O)[C@@H](CC(=O)NO)CC(C)C)C2 [Test compound 2, 3S-[4-(N-hydroxyamino)-2R-isobutylsuccinyl]amino-7-methoxy-3,4-dihydrocarbostyril]",–
1900,2900,850,"CC(=O)SC[C@H](C(=O)NO)[C@@H](CC(C)C)C(=O)N[C@H]1Cc2ccccc2NC1=O [Test compound 4, 3S-[4-(N-hydroxyamino)-2R-isobutyl-3S-acetylthiomethylsuccinyl]amino-3,4-dihydrocarbostyril]",–
540,360,150,"CC(C)C[C@@H](C(=O)N[C@H]1Cc2ccccc2NC1=O)[C@H](CS)C(=O)NO [Test compound 5, 3S-[4-(N-hydroxyamino)-2R-isobutyl-3S-mercaptomethylsuccinyl]amino-3,4-dihydrocarbostyril]",–
9800,140,–,"COCOCCN1C(=O)[C@@H](NC(=O)[C@@H](CC(=O)NO)CC(C)C)Cc2ccccc21 [Test compound 19, 3S-[4-(N-hydroxyamino)-2R-isobutylsuccinyl]amino-1-methoxymethoxyethyl-3,4-dihydrocarbostyril]",–
340,–,–,"3S- [4-(N-hydroxyamino)-2R-isobutyl-3S-methylsuccinyl]amino-3,4-dihydrocarbostyril [Example 17]",–
2200,110,–,"CC(C)C[C@H](CC(=O)NO)C(=O)N[C@H]1Cc2cc3c(cc2N(C)C1=O)OCO3 [Test compound 27, 3S-[4-(N-hydroxyamino)-2R-isobutylsuccinyl]amino-1-methyl-6,7-methylenedioxy-3,4-dihydrocarbostyril]",–
530,690,1300,"CON1C(=O)[C@@H](NC(=O)[C@@H](CC(=O)NO)CC(C)C)Cc2ccccc21 [Test compound 3, 3S-[4-(N-hydroxyamino)-2R-isobutylsuccinyl]amino-1-methoxy-3,4-dihydrocarbostyril]",Number of lung metastastic nodules mean ± S.E. ([4]; 25 mg/kg/day oral): 19.0 ± 3.7; Number of lung metastastic nodules mean ± S.E. ([4]; 50 mg/kg/day oral): 18.7 ± 6.0; Number of lung metastastic nodules mean ± S.E. ([4]; 100 mg/kg/day oral): 13.0 ± 5.2; Number of lung metastastic nodules mean ± S.E. ([4]; 200 mg/kg/day oral): 9.2 ± 2.8; Ratio to control group ([4]; 25 mg/kg/day oral): 90%; Ratio to control group ([4]; 50 mg/kg/day oral): 88%; Ratio to control group ([4]; 100 mg/kg/day oral): 61%; Ratio to control group ([4]; 200 mg/kg/day oral): 43%
1700,210,570,"CC(C)C[C@H](CC(=O)NO)C(=O)N[C@H]1Cc2ccccc2NC1=O [Test compound 1, 3S-[4-(N-hydroxyamino)-2R-isobutylsuccinyl]amino-3,4-dihydrocarbostyril]",–
